How the values were obtained:
Drosophila OR47a = biological target: T1, Drosophila OR47a (Drosophila melanogaster, UniProt P81921); test: cell-based; set-up: GCaMP6 calcium fluorescence in stable HEK293 OR+ORCO lines; peak dF normalised to 50 uM VUAA1 (=1); settings: HEK293; relative to 50 uM VUAA1 response; below 0.05 set to 0; read-out: % activation
T1 construct: expressed in transfected cells
T1 sequence (P81921 1-385): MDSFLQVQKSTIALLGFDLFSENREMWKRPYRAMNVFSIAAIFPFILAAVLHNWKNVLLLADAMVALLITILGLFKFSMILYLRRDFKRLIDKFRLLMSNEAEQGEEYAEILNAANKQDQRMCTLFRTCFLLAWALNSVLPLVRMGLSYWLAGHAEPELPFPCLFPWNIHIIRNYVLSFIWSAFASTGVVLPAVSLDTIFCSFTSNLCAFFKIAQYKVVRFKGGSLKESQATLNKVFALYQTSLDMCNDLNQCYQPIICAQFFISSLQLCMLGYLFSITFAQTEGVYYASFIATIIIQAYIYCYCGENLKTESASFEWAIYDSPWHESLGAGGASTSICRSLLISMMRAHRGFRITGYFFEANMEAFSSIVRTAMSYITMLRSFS
T1 sequence (Q9VNB5 1-486 partner): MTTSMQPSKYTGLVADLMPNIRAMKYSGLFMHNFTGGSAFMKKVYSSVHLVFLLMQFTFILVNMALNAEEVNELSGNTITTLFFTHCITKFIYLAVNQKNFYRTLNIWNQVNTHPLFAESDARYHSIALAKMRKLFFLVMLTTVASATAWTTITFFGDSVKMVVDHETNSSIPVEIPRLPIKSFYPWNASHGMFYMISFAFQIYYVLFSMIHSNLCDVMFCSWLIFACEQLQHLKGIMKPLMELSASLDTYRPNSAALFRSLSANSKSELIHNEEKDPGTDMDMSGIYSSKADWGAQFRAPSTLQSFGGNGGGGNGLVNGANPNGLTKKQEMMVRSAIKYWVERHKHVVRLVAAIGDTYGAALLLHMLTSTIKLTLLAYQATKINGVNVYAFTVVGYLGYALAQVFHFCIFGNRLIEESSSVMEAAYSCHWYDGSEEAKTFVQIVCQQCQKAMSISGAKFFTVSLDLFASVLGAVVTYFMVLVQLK
Experimental: (§1) Twelve thousand to 18,000 cells were plated into each well of a black wall, transparent bottom 384-well microplate (Greiner) 48 h or 72 h before the measurements and were simultaneously treated with 1 μg/mL doxycycline. Typically, three columns were filled with one OR expressing cell line, each row was treated with the same compound (three technical replicates for each OR), and each responsive VOC-OR combination was measured at least three times on different days. The plate has 24 columns, thus we could record responses in up to eight different cell lines in each plate. On the day of the experiment, the growth medium was replaced with 20 µL assay buffer/well (140 mM NaCl, 5 mM KCl, 2 mM CaCl2, 1 mM MgCl2, 5 mM HEPES-Na, 20 mM glucose, pH 7.3, 340 mOsm). […] Baseline fluorescence (F0) was recorded for 5 s, after which 7 µL VOC buffer (140 mM NaCl, 5 mM KCl, 2 mM CaCl2, 1 mM MgCl2, 5 mM HEPES-Na, 31 mM glucose, 0.1% DMSO, pH 7.3, 340 mOsm) was injected into each well in one row and the fluorescence response was recorded for an additional 30 s, at a rate of one read/sec. VOC solutions (VOC buffer with 4× concentration of the final measured VOC concentration, 9 µL/well was injected) were measured on the same wells in a second round with the same protocol. Each individual concentration of a specific VOC sample was recorded in three wells for the same cell line on the same microplate. The raw data were exported in xls file format, F0 and FMAX values, and the fluorescence intensity changes (∆F) were calculated in Excel (Microsoft) (Supplementary file Data summary.xlsx) using the following equation: ΔF=FMAX-F0/F0 (see also Fig. 1C). On each plate, we recorded the response of each cell line to 50 µM VUAA1. The average of these ∆F values of each cell line were used to calculate the VUAA1-normalized values for the rest of the plate, by dividing VOC response ∆F values by the average VUAA1 response ∆F value of the corresponding OR cell line. Each VOC-OR combination was measured three times as tec The recorded FMAX, F0, ∆F, VUAA1-normalized ∆F values, as well as the OR name, the name of the tested sample, and the final concentration for each well were copied into supplementary file Data summary.xlsx, that was used to summarize all the plates recorded. Here, the averages of the measurements were calculated for each receptor-VOC-concentration combination. […] Each VOC was measured at 1, 10, and 100 µM final concentration on each receptor. VUAA1-normalized response was calculated as described in methods. Values are averages of at least three biological replicates for responsive combinations and two for the non-responsive combinations. The chemical structures of the strong and medium ligands are shown for each cell line. Heat map: white-green colors correspond to the lowest-highest values measured for each cell line.

Drosophila OR71a = biological target: T2, Drosophila OR71a (Drosophila melanogaster, UniProt Q9VUK5); test: cell-based; set-up: GCaMP6 calcium fluorescence in stable HEK293 OR+ORCO lines; peak dF normalised to 50 uM VUAA1 (=1); settings: HEK293; relative to 50 uM VUAA1 response; below 0.05 set to 0; read-out: % activation
T2 construct: expressed in transfected cells
T2 sequence (Q9VUK5 1-378): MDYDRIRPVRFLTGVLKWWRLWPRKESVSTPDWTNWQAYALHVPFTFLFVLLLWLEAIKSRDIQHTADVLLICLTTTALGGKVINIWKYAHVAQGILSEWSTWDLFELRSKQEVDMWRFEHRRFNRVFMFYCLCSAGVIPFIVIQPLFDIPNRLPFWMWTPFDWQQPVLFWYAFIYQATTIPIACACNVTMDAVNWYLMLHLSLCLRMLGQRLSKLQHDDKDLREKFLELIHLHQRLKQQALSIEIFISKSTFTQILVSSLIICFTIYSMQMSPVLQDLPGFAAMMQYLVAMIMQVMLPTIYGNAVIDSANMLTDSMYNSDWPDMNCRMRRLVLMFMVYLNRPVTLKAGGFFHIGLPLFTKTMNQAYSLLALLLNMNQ
T2 sequence (Q9VNB5 1-486 partner): T1 sequence (Q9VNB5 1-486 partner)
Experimental: as §1

CC/C=C/CCO [e3-hexenol] gave an activity at 1 µM (Drosophila OR47a) of 6.26%, an activity at 10 µM (Drosophila OR47a) of 0% and an activity at 100 µM (Drosophila OR47a) of 14%. It also gave an activity at 1 µM (Drosophila OR71a) of 0%, an activity at 10 µM (Drosophila OR71a) of 0% and an activity at 100 µM (Drosophila OR71a) of 0%.

Reference: paper PMC10709440, “High-throughput ligand profile characterization in novel cell lines expressing seven heterologous insect olfactory receptors for the detection of volatile plant biomarkers” (Scientific Reports, 2023)
